Results published in a melting point compilation (Tetko et al.; mined from patent text by program, amines drawn as free bases though some values may be those of a salt).

| Structure (SMILES) | melting point |
| --- | --- |
| CCCCCCCCCCCCCCCCn1c(C2=CC(=O)c3ccccc3C2=O)ccc1C1=CC(=O)c2ccccc2C1=O | 40 to 43 °C |
| CCN1C(=O)CNCc2cc(OC)c(N)cc21 | 69 to 73 °C |
| COc1ccc([C@@H](CO)[C@H]2CCCCN2C(=O)OC(C)(C)C)cc1 | 115 to 117 °C |
| O=C(O)Cc1ccc(Cl)cc1[N+](=O)[O-] | 156 to 159 °C |
| CS(=O)(=O)c1ccc(C(=O)O)c(Cl)c1CO | 240 to 245 °C |
| CC1C(=O)N(c2ccc(S(C)(=O)=O)cc2)N=C1N (centres undefined) | 239 to 240 °C |
| O=C(Nc1c(C(O)(C(F)(F)F)C(F)(F)F)ccc2ccccc12)c1cnc2ccccc2n1 | > 240 °C |
| CCS(=O)(=O)c1ccc(C(=O)NCc2ccc3c(c2)CN(C2CCC(=O)NC2=O)C3=O)cc1 (centres undefined) | 222 to 224 °C |
| COc1ccc(CCCOc2ccc(C(=O)O)cc2)cc1OC | 150 to 154 °C |
| CCOc1cc2cc(CO)c(CO)c(-c3ccnc(Cl)c3)c2cc1OCC | 148 to 150 °C |
| O=C(NC1(C(=O)O)CCc2cc(O)ccc2C1)C(F)(F)F (centres undefined) | 70 to 95 °C |
| Cc1nc(-c2ccc([N+](=O)[O-])c(C)c2)c[nH]1 | 158 to 160 °C |
| CNC(=O)CCc1ccc2cc(O[C@@H](C)[C@H](O)CCc3cccnc3)ccc2c1 | 68 to 70 °C |
| Cc1c(NC(=O)C(CSC(=O)CC(C)C)Cc2ccccc2)cccc1C(=O)O (centres undefined) | 118 to 120 °C |
| CC(=O)NCc1ccc(CN2CCN(c3ccc(F)cc3)CC2)cc1[N+](=O)[O-] | 112 to 114 °C |
| CCOC(=O)c1cn(CC)c2nc(N3CCN(Cc4ccccc4)CC3)ncc2c1=O | 152 °C |
| CCOC(=O)NN(C(=O)OCC)C1(c2ccc3c(c2)OCO3)C(=O)N(Cc2ccc(Cl)cc2)c2ccccc21 (centres undefined) | > 220 °C |
| Cc1nc(-n2ccc(C(=O)Nc3ccccc3)cc2=O)sc1C(=O)NCc1ccccc1 | 243 to 245 °C |
| CCC(NC(=NC#N)Nc1ccc(N(C)C)nc1)c1ccccc1 (centres undefined) | 107 to 113 °C |
| O=C(O)C1CCCc2c(-c3ccc(Cl)c(Cl)c3)noc2C1 (centres undefined) | 183 to 185 °C |
| COC(=O)c1cn2c(n1)COc1ccc(Cl)cc1-2 | 239 to 240 °C |
| COc1ccccc1-c1cc(=O)cc(N2CCOCC2)o1 | 125 to 127 °C |
| CS(=O)(=O)Nc1cc(NC(=N)c2ccccc2)cc(NC(=O)/C=C/c2ccccc2C(F)(F)F)c1 | 150 to 155 °C |
| N#Cc1ccccc1C(=O)c1ccccc1S | 94 °C |
| CN(C(=O)N(CF)CF)c1nc2ccccc2s1 | 131 to 134 °C |

| Structure (SMILES) | melting point |
| --- | --- |
| COc1ccc(-c2cnn3c(N)c(-c4ccc(F)cc4)c(C)nc23)cc1 | 243 to 244 °C |
| CCC1CCC(CCc2ccccc2NC(=O)C=Cc2ccccc2)N(C)C1 (centres undefined) | 91 to 98 °C |
| CCOc1ccc2c(c1)n(C1CCCCC1)c(=O)n2Cc1ccc(C(=O)NC(C)(C)CC)cc1OC | 164 °C |
| CC(Oc1ccc(C(F)(F)F)cc1)c1ccnc2ncnn12 (centres undefined) | 100 to 102 °C |
| CCNC(=O)C(C)NC(=O)OCc1ccccc1 (centres undefined) | 116 to 117 °C |
| C=CCc1cc(C)c2c(c1O)C(C)(C)C(=O)N2 | 141 to 143 °C |
| CC(Cl)CC1Oc2ncccc2C(=S)NC1C (centres undefined) | 95 to 97 °C |
| COc1ccc(Cc2nc3cccc(NCc4ncc[nH]4)c3o2)cc1OC1CCCC1 | 179 to 180 °C |
| COC(=O)C1C(NC(C)=O)CC(=O)OC1C (centres undefined) | 135 to 136 °C |
| COC(=O)c1cc(-c2ccc(C)c(F)c2)n[nH]c1=O | 206 to 207 °C |
| COC(=O)c1ccc(C(O)=CC(=O)c2cc([Si](C)(C)C)ccc2O)cc1 | 130 to 131 °C |
| c1ccc(C2(n3ccnc3)c3ccccc3C(c3ccccc3)(n3ccnc3)c3ccccc32)cc1 (centres undefined) | 258 to 260 °C |
| CC1CNCCN1c1c(F)c(N)c2c(=O)c(C(=O)O)cn(C3CC3)c2c1F (centres undefined) | 224 to 226 °C |
| NC(=O)Cn1c(-c2cccc(Cl)c2)nc2cccnc21 | 245 to 247 °C |
| CCN(CC)CCOc1ccc(Nc2ncc3ccc(=O)n(C(C)C)c3n2)cc1 | 84 to 85 °C |
| CCc1nc(C(F)(F)F)c(CN(C(=O)C2CCCc3c(O)cccc32)c2ccc(C(C)C)nc2)s1 (centres undefined) | 164 °C |
| Cn1nnc(CN2CCC[C@@H](OCc3cc(C(F)(F)F)cc(C(F)(F)F)c3)[C@H]2c2ccccc2)n1 (relative stereo) | 139 to 141 °C |
| COc1cccc(CC(=O)c2c(O)c3cccnc3n(-c3ccccc3)c2=O)c1 | 173 to 174 °C |
| CC(C)(CO)CCCC(O)CCC(O)CCCC(C)(C)CO (centres undefined) | 96 to 97 °C |
| CC(C)(C)C(NC(=O)Cc1ccc2c(c1)OCCO2)NC(=NC#N)Nc1cccc2ncccc12 (centres undefined) | 191 to 192 °C |
| CN1CCC(c2c[nH]c3ccc(NC(=O)c4ccoc4)nc23)CC1 | 105 to 108 °C |
| COC1CCC(OC)C2=C1C=CC(=O)C2 (centres undefined) | 99 to 100 °C |
| O=C(NC1CCc2[nH]c3ccc(OC(F)(F)F)cc3c2C1)OCc1ccccc1 (centres undefined) | 123 to 126 °C |
| COc1cc2nc(S)[nH]c2cc1OC | 278 to 280 °C |
| O=C(CN1CCC(Cc2ccc(F)cc2)CC1)Nc1ccc([N+](=O)[O-])cc1 | 120 to 123 °C |

| Structure (SMILES) | melting point |
| --- | --- |
| Cc1oc2ccc(S(=O)(=O)C[N+](=O)[O-])cc2c(=O)c1C | 206 to 209 °C |
| O=C1CCC2(CC1)CC(=O)NC2=O | 154 °C |
| Nc1cc(Cl)c(NCCO)cc1[N+](=O)[O-] | 130 to 131 °C |
| Cc1noc(NS(=O)(=O)c2ccccc2Br)c1Br | 84 to 86 °C |
| COCC1CN(c2ccc(C3CCC4(CC3)OCCO4)nc2)C(=O)O1 (racemic) | 93 to 94 °C |
| CCOC(=O)Cn1c(C(=O)OCc2ccccc2)cc2cc(F)ccc21 | 75 to 76 °C |
| COC(=O)C(Oc1ccc([N+](=O)[O-])cc1)C(C)=O (centres undefined) | 87.5 to 88 °C |
| N#CCC(=O)NNC(=O)Nc1ccsc1CC(=O)Oc1ccc([N+](=O)[O-])cc1 | 132 to 135 °C |
| CC=CCNc1cc(C(=O)O)cc(S(N)(=O)=O)c1-c1ccccc1 | 186 to 187 °C |
| CCCCOc1cc2cc(C(=O)OC)c(C(=O)OC)c(-c3ccncc3)c2cc1OC | 149 to 151 °C |
| COc1cc2c(cc1OC)=C(CCCl)OCC(C)(C)C=2 | 66 to 67 °C |
| CCN1C(=O)C(C)(C)C(=O)N(C)c2cc(CN(CCn3ccc4ccsc4c3=O)Cc3cc(C)nn3C)ccc21 | 127 to 128 °C |
| CC(=O)NC[C@@H]1C[C@H]1c1cccc2c1C[C@@H](CCCCc1ccccc1)O2 | 65 to 66 °C |
| COc1ccc(Cn2c(=O)n([C@H]3CC[C@H](O)CC3)c3ccc(C(N)=O)cc32)cc1Cl | 292 °C |
| CC(C)(O)P(=O)(O)CCCN | 243 to 244 °C |
| Cc1ccc([N+](=O)[O-])cc1-c1ccccc1 | 69 to 71 °C |
| C=CCOc1ccc2cc(C(=O)OCC)[nH]c2c1 | 89 to 91 °C |
| Cn1nc(-c2ncc(Cl)cc2F)c(C=O)c1OC(F)F | 111 to 116 °C |
| O=C(NC1CCCCNC1=O)c1cccnc1 (centres undefined) | 177 to 178 °C |
| COc1ccc(Cn2cnc3c(-c4ccco4)nc(Cl)nc32)cc1C | 177 to 179 °C |
| CCOC(=O)Nc1nc(-c2ccccc2)c(-c2nc3ccccc3c(=O)n2-c2cccc(OC)c2)s1 | 204 to 205 °C |
| CS(=O)(=O)O[C@@H](COC(c1ccccc1)(c1ccccc1)c1ccccc1)C[C@@H]1c2ccccc2Oc2ccc(F)cc2[C@H]1N=[N+]=[N-] | 55 to 56 °C |
| Cc1cccc(NC(=O)OC(C)(C)C)c1CNc1cccn2c(C=O)c(C)nc12 | 210 to 212 °C |
| CC(C)(C)OC(=O)Nc1cc(OCC2COC(=O)O2)c(C#Cc2ccccc2)cc1NC(=O)CC(=O)c1cccc(C#N)c1 (racemic) | 181 °C |
| Cc1cccc(Nc2ncnc3ccc(CSc4nccn4C)cc23)c1 | 137 to 139 °C |

| Structure (SMILES) | melting point |
| --- | --- |
| N#CC=C1CCN(c2ccc(N3C[C@H](CNC(=O)CI)OC3=O)cc2F)CC1 | 178 to 180 °C |
| Cc1ncncc1NC(=O)Nc1ccc(-n2nc(C(F)(F)F)cc2C2CC2)cc1 | 190 to 192 °C |
| OC(CCCc1ccc(Cl)cc1)Cn1ccnc1 (centres undefined) | 84 to 85 °C |
| Cc1ccccc1NC(=O)Nc1ccc(CC(=O)NC(CC(C)C)c2cc(C=CC(=O)O)on2)cc1 (centres undefined) | 136 to 138 °C |
| O=C(N[C@H]1CC[C@H](O)CC1)OCc1ccccc1 | 148 to 151 °C |
| CC1NC(=O)NN=C1c1ccccc1 (centres undefined) | 214 °C |
| Cc1ncnc2nc(N)c(-c3c(Cl)cccc3Cl)cc12 | 280 to 282 °C |
| CC(=O)Nc1ccc(OC(=O)c2cc(OC(C)=O)ccc2OC(C)=O)cc1 | 148 to 150 °C |
| O=c1[nH]c(Cl)nc2ccccc12 | 251 to 252 °C |
| Cc1nnc(-c2ncn3c2[C@@H]2CCCN2C(=O)c2c(Cl)cccc2-3)o1 | 253 to 254 °C |
| COc1ccc(/C=N/Nc2ccccc2)cc1OC1CCCC1 | 138 to 140 °C |
| CC(=O)c1ccc(-c2cc(C(C)(C)C)c(O)c(C(C)(C)C)c2)cc1 | 144 to 145 °C |
| O=c1[nH]c2ccc(Cl)cc2c(=O)n1CCCN1CC=C(c2ccc(Cl)cc2)CC1 | 197 to 198 °C |
| CCCc1ccc(S(=O)(=O)Nc2ccc3nc(C)ccc3c2)cc1 | 174 °C |
| CCCc1cc(COc2cc(C)nc(C)c2OC)ccc1-c1ccccc1S(=O)(=O)Nc1noc(C)c1C | 56 to 59 °C |
| Nc1sc2c(c1C(=O)c1ccc(Cl)cc1)CCS2 | 146 to 150 °C |
| CCCC(=O)C1=C(O)CC(C2(C)CC(C(C)CC)=NO2)CC1=O (centres undefined) | 53 to 55 °C |
| CC(c1ccccc1N1CCCCC1)C(C(N)=O)c1ccc(C(=O)N2CCCCC2)cc1 (centres undefined) | 131 to 133 °C |
| C=CCOc1cc(N2C(=O)C3CCCCN3C2=O)c(F)cc1C#N (centres undefined) | 132 °C |
| CC(C)(C)OC(=O)NC12CCC1CN(Cc1ccccc1)C2 (centres undefined) | 69 to 70 °C |
| CCCCCS(=O)(=O)NC(=O)/C=C/c1ccc(OCCCOC)cc1Oc1ncc(C(F)(F)F)cc1Cl | 116 to 118 °C |
| O=c1oc(-c2ccc(OCc3ccccc3)cc2)cc(O)c1SCCc1ccccc1 | 139 to 142 °C |
| Cn1c(=O)c(Cc2ccccc2F)cc2cnc(S(C)(=O)=O)nc21 | 154 °C |
| Cn1cc(C(O)(c2ccc3c(cnn3C(=O)C3CCC3)c2)C(F)(F)F)c2ccccc21 (centres undefined) | 79 to 81 °C |
